Where two headings read alike, the source gives them in different places.
Tests used:
human α1A adrenoceptor = target: T1, human α1A adrenoceptor (Homo sapiens, UniProt P25100); test: biochemical; assay type: binding
T1 sequence (P25100 1-572): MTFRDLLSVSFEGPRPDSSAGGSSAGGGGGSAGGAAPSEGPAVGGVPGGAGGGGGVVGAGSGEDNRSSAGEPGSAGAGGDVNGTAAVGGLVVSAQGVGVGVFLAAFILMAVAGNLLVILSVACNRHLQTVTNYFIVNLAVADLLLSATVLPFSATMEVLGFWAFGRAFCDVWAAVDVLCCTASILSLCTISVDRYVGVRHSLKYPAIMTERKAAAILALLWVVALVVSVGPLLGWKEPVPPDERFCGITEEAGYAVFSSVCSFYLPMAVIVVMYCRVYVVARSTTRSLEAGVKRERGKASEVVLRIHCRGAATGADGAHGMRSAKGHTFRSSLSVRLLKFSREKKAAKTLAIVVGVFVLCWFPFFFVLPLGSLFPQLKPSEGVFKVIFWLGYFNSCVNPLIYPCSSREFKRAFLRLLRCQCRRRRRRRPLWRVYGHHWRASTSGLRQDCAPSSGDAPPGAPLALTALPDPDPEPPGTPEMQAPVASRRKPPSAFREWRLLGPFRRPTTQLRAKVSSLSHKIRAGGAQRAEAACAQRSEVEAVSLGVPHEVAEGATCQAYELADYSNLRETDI
Procedure: (§1) These cell lines were prepared by transfecting the cloned cDNA or cloned genomic DNA or constructs containing both genomic DNA and cDNA encoding the human α-adrenoceptors as follows:
The cells were grown, in a controlled environment (37° C., 5% CO2), as monolayers in Dulbecco's modified Eagle's Medium (GIBCO, Grand Island, N.Y.) containing 25 mM glucose and supplemented with 10% bovine calf serum, 100 units/ml penicillin g, and 100 μg/ml streptomycin sulfate.
(§2) Transfected cells from culture flasks were scraped into 5 ml of 5 mM Tris-HCl, 5 mM EDTA, pH 7.5, and lysed by sonication. The cell lysates were centrifuged at 1000 rpm. for 5 min at 4° C., and the supernatant was centrifuged at 30,000 ×g for 20 min at 4° C. The pellet was suspended in 50 mM Tris-HCl , 1 mM MgCl2, and 0.1% ascorbic acid at pH 7.5. […] The reaction was stopped by filtration through GF/B filters using a cell harvester.

human α1B adrenoceptor = target: T2, human α1B adrenoceptor (Homo sapiens, UniProt P35368); test: Radioligand binding ([3H]prazosin) at cloned human α1B
T2 construct: The entire coding region of the α1B receptor (1563 bp); expressed in transfected cells
T2 sequence (P35368 1-520): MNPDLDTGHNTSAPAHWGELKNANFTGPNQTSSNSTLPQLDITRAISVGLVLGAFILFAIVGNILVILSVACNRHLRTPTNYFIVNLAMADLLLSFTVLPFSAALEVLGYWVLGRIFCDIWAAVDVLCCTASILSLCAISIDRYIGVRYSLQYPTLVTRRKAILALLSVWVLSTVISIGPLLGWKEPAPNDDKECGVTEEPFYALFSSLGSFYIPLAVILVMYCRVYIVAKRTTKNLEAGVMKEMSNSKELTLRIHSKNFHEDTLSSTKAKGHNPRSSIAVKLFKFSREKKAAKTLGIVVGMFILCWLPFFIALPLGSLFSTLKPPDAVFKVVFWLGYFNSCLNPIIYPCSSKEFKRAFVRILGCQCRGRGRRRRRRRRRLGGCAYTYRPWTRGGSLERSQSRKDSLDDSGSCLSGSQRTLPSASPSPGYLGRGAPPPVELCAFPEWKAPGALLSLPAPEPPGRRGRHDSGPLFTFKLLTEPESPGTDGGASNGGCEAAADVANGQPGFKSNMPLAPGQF
Procedure: as §1
The construct involved ligating the full-length containing EcoRI brainstem cDNA fragment from λ ZapII into the expression vector. Stable cell lines were obtained as described above.
as §2

human α1C adrenoceptor = target: T3, human α1C adrenoceptor (Homo sapiens, UniProt P35348); test: biochemical; assay type: binding
T3 sequence (P35348 1-466): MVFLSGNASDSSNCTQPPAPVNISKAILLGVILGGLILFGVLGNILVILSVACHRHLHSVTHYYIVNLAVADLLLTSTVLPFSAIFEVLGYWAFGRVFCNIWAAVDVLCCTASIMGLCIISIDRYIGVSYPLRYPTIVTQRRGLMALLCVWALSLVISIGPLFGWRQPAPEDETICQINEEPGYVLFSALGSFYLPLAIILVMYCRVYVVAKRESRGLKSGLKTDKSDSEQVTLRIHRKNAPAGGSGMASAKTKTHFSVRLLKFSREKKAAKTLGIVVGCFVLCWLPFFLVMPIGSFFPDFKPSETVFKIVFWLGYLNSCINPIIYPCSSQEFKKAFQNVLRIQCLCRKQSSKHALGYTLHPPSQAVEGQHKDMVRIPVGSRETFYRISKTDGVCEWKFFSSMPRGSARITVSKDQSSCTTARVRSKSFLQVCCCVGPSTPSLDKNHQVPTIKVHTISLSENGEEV
Procedure: as §1
The construct involved ligating three partial overlapping fragments: a 5' 0.6 kb HincII genomic clone, a central 1.8 EcoRI hippocampal cDNA clone, and a 3' 0.6 Kb PstI genomic clone. The hippocampal cDNA fragment overlaps with the 5' and 3' genomic clones so that the HincII and PstI sites at the 5' and 3' ends of the cDNA clone, respectively, were utilized for ligation. This full-length clone was cloned into the KpnI site of the expression vector, using the 5' and 3' KpnI sites of the fragment, derived from vector (i.e., pBluescript) and 3'-untranslated sequences, respectively. Stable cell lines were obtained as described above.
as §2

[1] = target: T4, human urethra (α1-adrenoceptor) (Homo sapiens, UniProt P35348); test: Contractile study in isolated human male urethra
T4 construct: Tissue samples from the proximal urethra of male humans; from tissue; host or cells: human male proximal urethra strips
T4 sequence (P35348 1-466): T3 sequence (P35348 1-466)
From the text: (§3) In addition, similar studies were done using bladder neck tissue from female dogs. In order to identify the specific receptor subtype in each tissue, the pharmacological profile was compared to the profiles for these same drugs at the cloned human α1A, α1B, or α1C subtypes.
(§4) Tissue samples from the proximal urethra of male humans and male and female rabbits, as well as tissue samples from both the proximal urethra and bladder neck of male and female dogs were cut into transverse strips (3×10 mm) and suspended under 0.5 g tension in Krebs' physiological buffer at 37° C. To determine agonist potency (pEC50 )and antagonist affinity constants (pKB), concentration-effect curves to the non-selective agonist phenylepherine were constructed in the absence and in the presence of increasing concentrations of the antagonist. Up to four sequential curves were constructed in each tissue. Antagonists were allowed to equilibrate for 1h before each concentration-effect curve, and the drugs were completely washed out in between successive curves. In each experiment, one tissue served as a "time control", in which no antagonist was added so that changes in tissue sensitivity could be assessed as a function of time. […] In instances in which a single concentration of antagonist was used, pKB values were determined by the equation: […], where CR is defined as the ratio of the agonist EC50 in the presence of the antagonist to that in the absence of the antagonist.

[2] = target: T5, dog BN, male (α1-adrenoceptor) (Canis lupus, UniProt A0A8I3NK63); test: Contractile study in isolated male dog bladder neck; conditions: versus phenylephrine-induced contraction
T5 sequence (A0A8I3NK63 1-466): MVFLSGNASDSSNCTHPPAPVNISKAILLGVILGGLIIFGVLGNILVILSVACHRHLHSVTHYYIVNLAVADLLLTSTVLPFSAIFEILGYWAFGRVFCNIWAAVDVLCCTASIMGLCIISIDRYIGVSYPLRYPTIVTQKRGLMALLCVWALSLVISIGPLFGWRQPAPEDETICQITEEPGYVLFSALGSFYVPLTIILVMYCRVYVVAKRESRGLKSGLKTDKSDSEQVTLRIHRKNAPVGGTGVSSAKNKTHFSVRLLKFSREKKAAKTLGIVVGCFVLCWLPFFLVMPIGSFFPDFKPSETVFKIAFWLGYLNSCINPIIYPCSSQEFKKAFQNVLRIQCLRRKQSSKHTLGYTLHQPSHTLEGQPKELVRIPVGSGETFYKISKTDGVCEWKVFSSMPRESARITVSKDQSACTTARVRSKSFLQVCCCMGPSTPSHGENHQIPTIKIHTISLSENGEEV
From the text: as §3, §4

[3] = cited from earlier work; for major side effect of use in incontinence (blood pressure): dose-dependent; for major side effect of use in incontinence (blood pressure) / CNS side effects in some patients: Andersson and Sjogren, 1982; for CNS side effects in some patients: stimulant actions in the CNS, Wein, 1987
[4] = Andersson and Sjogren, 1982; cited from earlier work
[5] = prodrug; cited from earlier work
[6] = target: T6, rabbit urethra, male (α1-adrenoceptor) (Oryctolagus cuniculus, UniProt O02824); test: Contractile study in isolated male rabbit urethra; conditions: versus phenylephrine-induced contraction
T6 sequence (O02824 1-466): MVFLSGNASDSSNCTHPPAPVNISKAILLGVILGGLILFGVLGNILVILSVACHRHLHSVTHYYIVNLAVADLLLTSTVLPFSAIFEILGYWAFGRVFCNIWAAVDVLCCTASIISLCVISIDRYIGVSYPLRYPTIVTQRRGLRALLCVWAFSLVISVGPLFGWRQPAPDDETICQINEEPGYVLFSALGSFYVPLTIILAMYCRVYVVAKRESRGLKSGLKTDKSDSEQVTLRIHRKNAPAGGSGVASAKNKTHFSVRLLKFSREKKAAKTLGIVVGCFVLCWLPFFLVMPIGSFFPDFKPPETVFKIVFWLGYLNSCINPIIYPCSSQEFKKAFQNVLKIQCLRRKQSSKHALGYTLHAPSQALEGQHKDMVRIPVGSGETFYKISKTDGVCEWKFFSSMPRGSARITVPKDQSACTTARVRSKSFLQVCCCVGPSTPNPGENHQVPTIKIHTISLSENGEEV
From the text: as §3, §4

[7] = target: T7, rabbit urethra, female (α1-adrenoceptor) (Oryctolagus cuniculus, UniProt O02824); test: Contractile study in isolated female rabbit urethra; conditions: versus phenylephrine-induced contraction; read-out: pKB Rabbit Urethra Female (converted)
T7 construct: proximal urethra of male humans and male and female rabbits; from tissue; host or cells: rabbit proximal urethra strips, male or female
T7 sequence (O02824 1-466): T6 sequence (O02824 1-466)
From the text: as §3, §4

[8] = target: T8, dog BN, female (α1-adrenoceptor) (Canis lupus, UniProt A0A8I3NK63); test: Contractile study in isolated female dog bladder neck; conditions: versus phenylephrine-induced contraction
T8 sequence (A0A8I3NK63 1-466): T5 sequence (A0A8I3NK63 1-466)
From the text: as §3, §4

COC(=O)C1=C(C)NC(C)=C(C(=O)OCCCN2CCC(c3ccccc3)(c3ccccc3)CC2)C1c1ccc([N+](=O)[O-])cc1.Cl (racemic) [Compound 1, (±)-2,6-Dimethyl-4-(4-nitrophenyl)-1,4-dihydro-pyridine-3,5-dicarboxylicacid [3-(4,4-diphenylpiperidin-1-yl)propyl]ester methyl ester hydrochloride]
Ki (human α1A adrenoceptor): 316 nM
Ki (human α1B adrenoceptor): 79.4 nM
Ki (human α1C adrenoceptor): 3.16 nM
Kb [1]: 7.94 nM
pKB Dog BN Male [2]: 6.2

CN[C@@H](C)[C@H](O)c1ccccc1 [ephedrine]
major side effect of use in incontinence (blood pressure) [3]: increase in blood pressure
CNS side effects in some patients [3]: insomnia, anxiety and dizziness

COc1ccc(OC)c(C(O)CNC(=O)CN)c1 (stereo not drawn) [midodrine]
clinical efficacy in urinary incontinence [4]: has not been demonstrated conclusively
in vivo conversion to active phenylethylamine [5]: converted in vivo to the active phenylethylamine ST-1059

Clc1cccc(Cl)c1N=C1NCCN1 [clonidine]
undesirable side effects at therapeutic doses ([3]; in addition to antihypertensive effect): dry mouth, sedation and orthostatic hypotension

COc1ccccc1N1CCN(CCN2C(=O)CC3(CCCC3)CC2=O)CC1 [BMY 7378]
Ki (human α1B adrenoceptor; Table 2, antagonists, versus 3H-prazosin, read-out: pKI (antagonist affinity, 3H-prazosin binding) hα1B (converted)): 100 nM
pKB Rabbit Urethra Male [6]: 6.5
Kb [7]: 794 nM
pKB Dog BN Male [2]: 7.1
pKB Dog BN Female [8]: 6.8

CC(N)C(O)c1ccccc1 (stereo not drawn) [phenylpropanolamine]
major side effect of use in incontinence (blood pressure) [3]: increase in blood pressure
CNS side effects in some patients [3]: insomnia, anxiety and dizziness

CNC[C@H](O)c1cccc(O)c1 [phenylephrine]
major side effect of use in incontinence (blood pressure) [3]: increase in blood pressure
